Source: patent US20240009224A1, “ACYCLIC THREONINOL NUCLEIC ACID” (The University of Tokyo, priority 2021, published 2024)
{Fluorescein} = fluorescein label

Tested on: HeLa cells
Assay: Flow cytometry of HeLa cells after introduction of fluorescein-labeled nucleic acid (cell membrane permeability)
Type: cell-based
Settings: fluorescein-labeled control DNA = 1
Description: HeLa cells were cultured in Dulbecco's modified Eagle's medium (DMEM, manufactured by Thermo Fisher Scientific, Inc.) supplemented with 10% FBS and 0.5% penicillin/streptomycin in a humidified atmosphere (5 vol % CO2) at 37° C. Cells for image analysis were cultured in a 35 mm glass bottom dish (IWAKI, manufactured by AGC Techno Glass Co., Ltd.).
[…] On the day after seeding, the medium in each well was changed to DMEM medium (1 mL) containing a fluorescein-conjugated nucleic acid (2.5 μM) and incubated for 4 or 24 hours. Then, after washing the cell layer in the well twice with PBS, the cells were detached by treatment with 0.05% (w/v) trypsin (200 μL) at 37° C. for 5 minutes. The recovered cells were suspended in DMEM (600 μL). The cell suspension was separated by centrifugation process (400×g, 3 minutes), and PBS/1% BSA (500 μL) was added thereto. The ratio of fluorescent cells in this cell suspension and the mean fluorescence intensity were analyzed with a flow cytometer (“guava easyCyte8”, manufactured by Luminex Corporation).
After introducing a nucleic acid (fluorescein-labeled aTNA-N5[PFC8]) in which fluorescein was bound to the 3′-end of the synthesized aTNA-N5[PFC8] into HeLa cells, flow cytometry was performed, and the number of cells into which the fluorescein-labeled nucleic acid was introduced and the amount of fluorescein-labeled nucleic acid introduced into each cell were quantified based on the fluorescence intensity of fluorescein. As a control, a nucleic acid in which fluorescein was bound to the 3′-end of the control DNA (fluorescein-labeled control DNA) was also introduced into HeLa cells in the same manner and then analyzed by flow cytometry.
The fluorescein-labeled aTNA-N5[PFC8] produced in Example 1 was hybridized with a single-stranded DNA (control rDNA) composed of a base sequence (SEQ ID NO: 2) complementary to that of the control DNA to produce a fluorescein-labeled double-stranded DNA (fluorescein-labeled aTNA-N5[PFC8]/rDNA) having a repeating structure of the structure (A1) at the 5′-end and bound with fluorescein at the 3′-end. […] These fluorescein-labeled double-stranded DNAs were introduced into HeLa cells and then analyzed by flow cytometry in the same manner as in Example 1.
After respectively introducing nucleic acids (fluorescein-labeled aTNA-C2[PFC8] and fluorescein-labeled aTNA-C5[PFC8]) in which fluorescein was bound to the 3′-ends of the synthesized aTNA-C2[PFC8] and aTNA-C5[PFC8] into HeLa cells, flow cytometry was performed, and the number of cells into which the fluorescein-labeled nucleic acid was introduced and the amount of fluorescein-labeled nucleic acid introduced into each cell were quantified based on the fluorescence intensity of fluorescein. […]

Measured: Relative fluorescence intensity of cells into which fluorescein-labeled nucleic acid was introduced

Control DNA: control DNA (Seq. No. 1), natural single stranded DNA; fluorescein bound to the 3′-end (DNA TTTTTCAGTTGACCATATA; DNA, 3' {Fluorescein}, backbone and methylation of C not given here)
1.0: Example 1, single-stranded, 2.5 μM, 4 or 24 hours | Example 3, single-stranded | Example 4, single-stranded, 96-well plate, 10^4 cells per well, 2.5 μM, 4 hours | Example 6, single-stranded, 96-well plate, 10^4 cells per well, 2.0 μM, 4 hours
